Literature values in patent US6716451B1 (Soft Gel Technologies, Inc., priority 1999, dated 2004).
Where two headings read alike, the source gives them in different places.

Legend:
human breast cancer cell = settings: in vitro
[1] = subjects taking at least 100 IU daily; more than 12,000 adults

For `CC(C)=CCC/C(C)=C/CC/C(C)=C/CC[C@]1(C)CCc2cc(O)c(C)c(C)c2O1` [γ-tocotrienol], the “inhibition of growth of human breast cancer cells compared with Tamoxifen” value (human breast cancer cell) is listed as “more effectively than the popular breast cancer drug, Tamoxifen”.

In the case of Vitamin E, the adverse effects (50 mg/day for 1 to 8.2 years, cardiovascular clinical studies) is given as “without any adverse effects”, the adverse effects (oral 50 to 400 IU per day, double-blind clinical studies) is given as “did not show any adverse effects” and the “decrease in heart disease risk” value [1] is given as 40%.
